Experiments:
[1] = tested on: erucic acid-induced myocardial steatosis; assay: erucic acid-induced myocardial steatosis model in the rat (erucic acid-rich rape oil diet); format: in vivo, rat (male Wistar); details: for Cholesterol / ATP: n=6; for Cholesterol: controls 32.7 ±11.95; for ATP: controls 34.2 ±8.73
Description: (§1) A myocardial steatosis model, in which an L-carnitine positive effect was already described, was used in the rat. The steatosis was induced by adding, for five (5) consecutive days, erucic acid-rich rape oil in the rats' normal daily diet, according to the method described by Branca et al. (Internat., Vit. Nutr. Res., 47, 162-166, 1977). Trial-groups of six (6) male Wistar rats, weighing from 190 g to 220 g, were used.
These effects were statistically significant with Student's t test.

normal mouse's behaviour = assay: Irwin's test in the mouse (normal mouse's behaviour); format: in vivo; details: 1000 mg/kg e.p.; 4 M + 4 F
Procedure: (§2) The effects of L-carnitine phosphorylethanolamide to Irwin's test in the mouse and acute toxicity after endoperitoneal administration of the substance, always in the mouse, were also evaluated.

[2] = acute toxicity in the mouse (mortality curve and LD50); format: in vivo; details: in vivo, ip; mouse, e.p.; 7 days observation
Procedure: as §2

mouse = assay: as above; format: in vivo; details: 4 M + 4 F, 7 days observation
Procedure: as §2

[3] = solubility and appearance of the inner salt; format: physicochemical
Description: A 20% aqueous solution of the calcium salt of L-carnitine phosphorylethanolamide was passed through AMBERLITE IR 120 activated with a 10% solution of hydrochloric acid. The eluate was neutralized with AMBERLITE IR 45 resin. The solution was then concentrated to dryness under vacuum. A white product crystallized which was taken up with warm ethanol.

lipid metabolism = assay: restoring to normal any imbalance in the lipid metabolism / summary of the pharmacological trials; format: in vivo
Description: as §1
The model of erucic acid-induced myocardial steatosis is used to compare the effect of the 14 day-administration of 250 and 125 mg/kg e.p. of L-carnitine with that of L-carnitine phosphorylethanolamide at the same doses for the same study period.
Moreover other tests were carried out using a model of olive-oil induced hyperlipemia in the rat. L-carnitine was administered at 250 and 125 mg/kg endoperitoneally for 14 days, as was L-carnitine phosphorylethanolamide at 250 and 125 mg/kg endoperitoneally for 14 days. The following parameters were evaluated:
Moreover it is efficacious in re-establishing the balance between fatty acids' oxidation and uptake, and in stimulating acetyl-CoA's oxidation in Kreb's cycle. Important to underline is that to these actions, another, of a more ubiquitary nature, must be added. […]

[4] = 250 mg/kg endoperitoneally, 5 days, statistically significant (Student's t test)
[5] = Table 1, 250 mg/kg e.p., 5 days, P < 0.001

## C[N+](C)(C)CC(O)CC(=O)NCCOP(=O)([O-])O [L-carnitine phosphorylethanolamide]
[1]; [4]
  ATP values: brought back to normal the ATP values
  accumulation of triglycerides in the myocardium: reduced the accumulation of triglycerides in the myocardium
  cholesterol levels: lowered the cholesterol levels
[1]; [5]
  ATP, change vs controls: +76.9%
  Triglycerides, change vs controls: -47.9%
[1]; Table 1, 250 mg/kg e.p., 5 days, P < 0.01
  Cholesterol, change vs controls: -60.9%
[1]; Table 1, 250 mg/kg e.p., 5 days, spread of treated group ±7.16 on next line, P < 0.01
  Cholesterol: 12.8 mg/g of fresh tissue
[1]; Table 1, 250 mg/kg e.p., 5 days, spread of treated group ±5.78 on next line, P < 0.001
  ATP: 60.5 nM/g proteines
Normal mouse's behaviour
  Main effects observed: apparently normal
[2]
  LD50 at 168 h: > 8000 mg/kg
mouse; 1000 mg/kg e.p.
  N° of dead animals: 0
mouse; 2000 mg/kg e.p.
  N° of dead animals: 0
mouse; 4000 mg/kg e.p.
  N° of dead animals: 0
mouse; 8000 mg/kg e.p.
  N° of dead animals: 0
[3]; common organic solvents
  solubility in most of the common organic solvents: insoluble in most of the common organic solvents
[3]; water and methanol at room temperature, warm ethanol
  solubility: Soluble in water and methanol at room temperature and in warm ethanol
[3]; white, amorphous powder, inner salt
  hygroscopicity: hygroscopic
Lipid metabolism
  normalization of myocardial hypertriglyceridemia and hyperlipemia, induced by erucic acid treatment: extremely active
  re-establishing the balance between fatty acids' oxidation and uptake, and stimulating acetyl-CoA's oxidation in Kreb's cycle: efficacious

## C[N+](C)(C)C[C@H](O)CC(=O)[O-] [L-carnitine]
[1]; Table 2, 250 mg/kg endoperitoneally for 5 days, P < 0.001
  Triglycerides, change vs controls: -60.1%
[1]; Table 2, 250 mg/kg endoperitoneally for 5 days, n.s.
  Cholesterol, change vs controls: -34.5%
[1]; Table 2, 250 mg/kg endoperitoneally for 5 days, spread of treated group ±7.01 on next line, n.s.
  Cholesterol: 24.7 mg/g of fresh tissue
[1]; Table 2, 250 mg/kg endoperitoneally for 5 days, spread of treated group ±20.28 on next line, P < 0.05
  ATP: 57.3 nM/g proteines

Source: patent publication US4784992A, “Phosphorylalkanolamide derivatives of L-carnitine and pharmaceutical compositions containing same” (Sigma-Tau Industrie Farmaceutiche Riunite S.p.A., priority 1986, dated 1988)
